These are literature values, as cited in patent US6369065B1, “CD40 signal blocking agent” (UCB S.A., priority 2000, dated 2002).

The data set relates to aorta lesions. To be noted: rabbit models of arteriosclerosis.

As for `CCCCCN(CCO)c1cc(N2CCCCC2)nc2ncnn12` [AR12463], the “progress of aorta lesions” value was “suppress the progress of aorta lesions”.
